According to publication PMC2615442, “Comparative analysis of selected methods for the assessment of antimicrobial and membrane-permeabilizing activity: a case study for lactoferricin derived peptides” (BMC Microbiology, 2008):
Where a SMILES comes first, the peptide text is derived from it.

Legend:
[1] = test system: P. aeruginosa strain PAO1; conditions: for final MIC of antibiotic: in the presence of subinhibitory concentrations of peptide P22, strain PAO1
Protocol: For these experiments we used the wild type P. aeruginosa strain PAO1, whose mechanisms of antibiotic resistance have been extensively studied.
(§1) The ability of the peptides to induce bacterial sensitization to antibiotics was determined by a standard checkerboard titration method in 96-well polystyrene microtiter plates. For this purpose, serial dilutions of the two antimicrobial agents were mixed together in a microtiter plate so that each row contained a fixed amount of peptide and increasing amounts of the antibiotic. Inocula and growth conditions were identical to those described for MIC determination. To assess the synergy between antibiotics and peptides, the Fractional Inhibitory Concentration (FIC) index of each combination was calculated according to the following formula: [(A)/MICA] + [(P)/MICP] = FICA + FICP = FIC index, where MICA and MICP are the MICs of the antibiotic and peptide determined separately, and (A) and (P) are the MICs of the antibiotic and peptide when determined in combination. A given peptide-antibiotic combination was considered as synergistic if its FIC index was ≤ 0.5.

[2] = test system: Pseudomonas aeruginosa 4158-02; test: microbe, parasite or virus in culture; conditions: for FIC index of peptide-novobiocin combination: checkerboard, peptides with MIC >250 μg/mL assigned 500 μg/mL, synergistic if ≤ 0.5; for synergistic activity with novobiocin, in words: subinhibitory peptide concentrations
Protocol: First, we studied the ability of the peptides to sensitize P. aeruginosa to novobiocin, a hydrophobic antibiotic that cannot reach its intracellular target (gyrase) due to its inability to cross an intact outer membrane. […] Specifically, for a combination to be considered synergistic MIC of each agent when combined have to be at least 4-times lower than that of the corresponding agent alone.
as §1

Pseudomonas aeruginosa [3] = test: NPN uptake permeabilization assay; assay type: cell-based; conditions: peptide 50 μg/mL; NPN 10 μM; 5 mM HEPES pH 7.2 with 0.1% glucose; 37°C
Protocol: In addition to this indirect method, we used a direct assay which measures the ability of peptides to promote the entry of a hydrophobic fluorescent probe (1-N-phenylnaphthylamine; NPN) into the cell membrane. This method identifies potent permeabilizers as those causing rapid NPN uptake leading to a high level of fluorescence.
The peptides permeabilizing activity on the bacterial cell envelope was assessed by quantifying the uptake of 1-N-phenylnaphthylamine (NPN). These experiments were performed essentially as described by Loh and collaborators with some modifications. Briefly, bacterial cells were grown in LB broth to mid-logarithmic phase, washed in 5 mM HEPES buffer (N-2-hydroxyethylpiperazine-N'-2-ethanesulfonic acid, pH 7.2) and resuspended at an OD600 of 0.5 in HEPES supplemented with 0.1% glucose. Freshly prepared bacterial suspensions were allowed to stabilize at 37°C for 10 min in quartz cuvettes. NPN was added at a final concentration of 10 μM and fluorescence was measured with a fluorometer (LS-50, Perkin-Elmer, Wellesley, MA, USA) using the time drive recording mode, slit widths of 2.5 nm and excitation and emission wavelengths of 350 nm and 420 nm, respectively. Peptides were added to the cuvette at a final concentration of 50 μg/mL.

E. coli ATCC 25922 = test: MIC/MBC in polypropylene vs. polystyrene microplates; assay type: cell-based, Escherichia coli; conditions: for MIC, polypropylene vs. polystyrene plates: broth microdilution
Protocol: It has been reported that cationic peptides have affinity for certain plastics (i.e. polystyrene; [20]), and as a consequence some authors disfavor the use of microplates made of such material. To investigate this potential interference, we studied whether the composition of the microplate (polypropylene vs. polystyrene) affected the antibacterial activity of selected peptides differing in length, hydrophobicity and net charge when tested on E. coli ATCC 25922.
The peptides MICs were determined in Mueller-Hinton (MH) medium (Difco Laboratories, Sparks, MD, USA) by the broth microdilution assay following recommendations of the Clinical and Laboratory Standards Institute. Briefly, serial twofold dilutions of the peptides were made in MH broth and dispensed into 96-well U-bottom polystyrene microtiter plates (TPP, Trasadingen, Switzerland). Bacterial cells grown for 18–20 h on agar plates were suspended in saline and the turbidity was adjusted to an O.D600 of 0.04 (1 × 10^7 CFU/mL, approximately). A hundred-fold dilution of this suspension prepared in MH broth was mixed 1:1 with 100 μL of each of the corresponding peptide dilution. Plates were incubated at 37°C without shaking for 18–20 h and the MIC was determined visually. Minimum bactericidal concentration (MBC) was determined by plating aliquots from those wells with no growth onto MH agar plates. MBC was defined as the lowest concentration of the peptide causing a 99.9% loss of viability with respect to the CFU/mL inoculated.
The peptides MICs were also determined using polypropylene labware by the conventional broth microdilution assay as described above. For these experiments, polypropylene 96 well round bottom plates (Greiner; Sigma-Aldrich, USA) were used. Both this and all the previous antimicrobial susceptibility assays were performed at least in duplicate.

Escherichia coli = test: Bactericidal activity on resting bacteria in phosphate buffer with or without Ca2+/Mg2+; assay type: cell-based; conditions: 20 mM phosphate pH 7.0 (PB vs PB-CM), 18 hours, viable counts
Protocol: (§2) All peptides were first screened for bactericidal activity under low ionic strength conditions on resting bacteria. For this purpose, we exposed bacterial cells in phosphate buffer (PB) to increasing concentrations of peptides and performed viable cell counts. Experimental designs similar to this are found in reports dealing with the biological characterization of peptides (see for instance). These experiments were performed on Escherichia coli, Pseudomonas aeruginosa and Bordetella bronchiseptica, three Gram-negative pathogens differing in sensitivity to APs.
(§3) The buffer used in the previous experiments was devoid of Ca^2+ and Mg^2+, two divalent cations known to contribute to outer membrane stabilization. […] However, the magnitude of the decrease varied markedly depending upon the peptide and strain.
(§4) The activity of the peptides was determined on non-growing bacteria by incubating bacterial suspensions containing number of CFU/mL identical to those used for the MIC assay (5 × 10^4 per microplate well) in low-ionic strength medium (20 mM phosphate, pH 7.0) with or without 1 mM Ca ^2+ and 1 mM Mg ^2+. After 18 hours, aliquots were plated onto MH agar to determine the presence of viable bacteria, as described above for the standard MBC assay.

[4] = test system: Bordetella bronchiseptica; test: as above; assay type: cell-based; conditions: 20 mM phosphate pH 7.0 (PB vs PB-CM), 18 hours, viable counts
Protocol: as §2, §3, §4

Pseudomonas aeruginosa [5] = test: as above; assay type: cell-based; conditions: 20 mM phosphate pH 7.0 (PB vs PB-CM), 18 hours, viable counts
Protocol: as §2, §3, §4

CC[C@H](C)[C@H](NC(=O)[C@H](CC(N)=O)NC(=O)[C@H](CCCNC(=N)N)NC(=O)[C@H](CCC(N)=O)NC(=O)[C@H](Cc1c[nH]c2ccccc12)NC(=O)[C@H](Cc1ccccc1)NC(=O)[C@@H](N)CCCNC(=N)N)C(=O)N[C@@H](CCCNC(=N)N)C(=O)N[C@@H](CCCCN)C(=O)N[C@@H](Cc1ccc(O)cc1)C(=O)N[C@@H](CCCNC(=N)N)C(=O)N[C@@H](CCCNC(=N)N)C(N)=O [P 22] (H-RFWQRNIRKYRR-NH2)
FIC of P22-antibiotic combinations ([1]; PAO1): < 0.5
peptide MIC ([1]; PAO1): 31.25 µg/mL

CC1(C)S[C@@H]2[C@H](NC(=O)[C@H](N)c3ccc(O)cc3)C(=O)N2[C@H]1C(=O)O [amoxicillin]
final MIC of antibiotic [1]: 2 µg/mL

CC1(C)S[C@@H]2[C@H](NC(=O)[C@H](N)c3ccccc3)C(=O)N2[C@H]1C(=O)O [ampicillin]
final MIC of antibiotic [1]: 5 µg/mL

CC[C@H]1OC(=O)[C@H](C)[C@@H](O[C@H]2C[C@@](C)(OC)[C@@H](O)[C@H](C)O2)[C@H](C)[C@@H](O[C@@H]2O[C@H](C)C[C@H](N(C)C)[C@H]2O)[C@](C)(O)C[C@@H](C)C(=O)[C@H](C)[C@@H](O)[C@]1(C)O [erythromycin]
final MIC of antibiotic [1]: 1 µg/mL

CCn1cc(C(=O)O)c(=O)c2ccc(C)nc21 [nalidixic acid]
final MIC of antibiotic [1]: 2 µg/mL

CO[C@@H]1[C@@H](OC(N)=O)[C@@H](O)[C@H](Oc2ccc3c(O)c(NC(=O)c4ccc(O)c(CC=C(C)C)c4)c(=O)oc3c2C)OC1(C)C [novobiocin, reference compound]
final MIC of antibiotic [1]: 5 µg/mL
MIC ([2]; Pseudomonas aeruginosa, 415802, read-out: novobiocin MIC in the absence of peptides): ≥ 512 µg/mL

CO[C@H]1/C=C/O[C@@]2(C)Oc3c(C)c(O)c4c(O)c(c(/C=N/N5CCN(C)CC5)c(O)c4c3C2=O)NC(=O)/C(C)=C\C=C\[C@H](C)[C@H](O)[C@@H](C)[C@@H](O)[C@@H](C)[C@H](OC(C)=O)[C@@H]1C [rifampicin]
final MIC of antibiotic [1]: 0.07 µg/mL

CFWQRNIRKVRC-NH2 [P 28, LF11 derived synthetic peptide, disulfide insertion, linear]
classification by the novobiocin-sensitization technique [2]: poor permeabilizers
NPN uptake (fluorescence rise) (Pseudomonas aeruginosa [3]): slowest and less prominent NPN-uptakes

FWARNIRKVR-NH2 [P 46, LF11 derived synthetic peptide, amidated C-terminus]
MBC, polypropylene vs. polystyrene plates (E. coli ATCC 25922): improved its MBC when using polypropylene instead of polystyrene

FWLRNIRKVR-NH2 [P 48]
FIC index of peptide-novobiocin combination [2]: low FIC indices

FWQRNIRKVKKK-NH2 [P 10]
FIC index of peptide-novobiocin combination [2]: best compounds as judged by their FIC indices
synergistic activity with novobiocin, in words [2]: synergistic activity at low concentrations

FWQRNIRKVKKKI-NH2 [P 14]
FIC index of peptide-novobiocin combination [2]: best compounds as judged by their FIC indices
decrease in novobiocin MIC (MIC ratio without/with peptide) ([2]; peptide added at 6.25 μg/mL): 4 fold
times the synergistic peptide concentration (6.25 μg/mL) is lower than the peptide's own MIC ([2]; peptide at 6.25 μg/mL): at least 40 times

FWQRNIRKVKKKK-NH2 [P 13, LF11 derived synthetic peptide, amidated C-terminus]
MBC, polypropylene vs. polystyrene plates (E. coli ATCC 25922): not significantly affected by the type of material used
MIC, polypropylene vs. polystyrene plates (E. coli ATCC 25922): MIC improved in polypropylene plates

FWQRNIRKVRRRR-NH2 [P 11, LF11 derived synthetic peptide, amidated C-terminus]
MBC, polypropylene vs. polystyrene plates (E. coli ATCC 25922): lower in polystyrene
MIC, polypropylene vs. polystyrene plates (E. coli ATCC 25922): same MIC in both materials

FWQRNISKVR-NH2 [P 54, LF11 derived synthetic peptide, amidated C-terminus]
classification by the novobiocin-sensitization technique [2]: poor permeabilizers
NPN uptake (fluorescence rise) (Pseudomonas aeruginosa [3]): slowest and less prominent NPN-uptakes

FWQRNIYKVR-NH2 [P 41, LF11 derived synthetic peptide, amidated C-terminus]
classification by the novobiocin-sensitization technique [2]: poor permeabilizers
NPN uptake (fluorescence rise) (Pseudomonas aeruginosa [3]): slowest and less prominent NPN-uptakes

FWQRRIRKVRR-NH2 [P 15]
FIC index of peptide-novobiocin combination [2]: low FIC indices
synergistic activity with novobiocin, in words [2]: synergistic activity at low concentrations

FWRNIRKVR-NH2 [P 3, LF11 derived synthetic peptide, amidated C-terminus]
classification by the novobiocin-sensitization technique [2]: poor permeabilizers
NPN uptake (fluorescence rise) (Pseudomonas aeruginosa [3]): slowest and less prominent NPN-uptakes

Polymyxin B [PMB]
MIC, polypropylene vs. polystyrene plates (E. coli ATCC 25922): higher activity (lower MIC value) when assayed in polypropylene
effect of 1 mM Ca2+ and 1 mM Mg2+ on bactericidal activity (Escherichia coli): not significantly affected by the divalent cations
effect of 1 mM Ca2+ and 1 mM Mg2+ on bactericidal activity [4]: not significantly affected by the divalent cations
effect of 1 mM Ca2+ and 1 mM Mg2+ on bactericidal activity (Pseudomonas aeruginosa [5]): not significantly affected by the divalent cations
